The values that follow come from publication PMC7710018, “Restoration of motor learning in a mouse model of Rett syndrome following long-term treatment with a novel small-molecule activator of TrkB” (Disease Models & Mechanisms, 2020).

Where two headings read alike, the source gives them in different places.

Assay [1] relates to 55 pharmacologically relevant receptors. Also noted: method as in Massa et al., 2010. The settings on record: standard screening concentration; ref Massa et al., 2010; cited from earlier work.
Assay [2] has as its system rat model of traumatic brain injury. Also noted: method as in Massa et al., 2010. The settings on record: ref Massa et al., 2010; cited from earlier work.
Another assay concerns Het mice. The arrangement: method as in Li et al., 2017. The conditions noted are these: long-term treatment of Het mice; ref Li et al., 2017; cited from earlier work.
For the next assay, the target named is T1, 5-HT1A (h) (Homo sapiens, UniProt P08908).
T1 construct: purchased Cerep (ExpresSProfile)
T1 sequence (P08908 whole entry): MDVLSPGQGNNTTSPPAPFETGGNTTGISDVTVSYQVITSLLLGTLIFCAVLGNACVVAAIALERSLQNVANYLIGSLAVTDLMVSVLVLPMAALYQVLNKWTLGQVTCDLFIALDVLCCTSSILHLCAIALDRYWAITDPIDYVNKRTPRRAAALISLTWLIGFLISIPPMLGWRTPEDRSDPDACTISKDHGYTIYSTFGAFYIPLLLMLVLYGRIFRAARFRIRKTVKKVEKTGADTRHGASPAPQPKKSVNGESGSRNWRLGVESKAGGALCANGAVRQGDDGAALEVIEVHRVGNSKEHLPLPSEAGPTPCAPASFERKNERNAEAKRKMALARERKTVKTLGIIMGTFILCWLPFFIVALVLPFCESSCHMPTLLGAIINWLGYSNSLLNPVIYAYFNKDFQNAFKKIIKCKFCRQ
In words: Cerep ExpresSProfile radioligand binding. The conditions noted are these: 10 micromolar, agonist radioligand. The procedure:
(§1) To evaluate the relative binding specificity of LM22A-4 ([Massa et al., 2010]) and PTX-BD4-3, binding to a broad range of 55 pharmacologically relevant receptors, including numerous neurotransmitter and G-protein coupled receptors was assessed using standard radioligand competition binding assays (ExpressSProfile) performed by Cerep, Inc. (Seattle, WA, USA). In addition, ADME-Tox analysis was performed by Cerep, Inc. All experimental conditions are described on the Cerep website (www.cerep.fr).
(§2) Ligand % Inhibition of Control Specific […]
(§3) 48 Ca2+ channel (L, verapamil site) 0 ‐1.3 ‐0.7
(§4) (phenylalkylamine) (antagonist radioligand) […]
(§5) 51 Na+ channel (site 2) (antagonist radioligand) 0.6 11.7 6.1
(§6) 52 Cl‐ channel (GABA‐gated) (antagonist 2.7 ‐5.3 ‐1.3 […]
(§7) Table S1. In vitro binding assays. An ExpresSProfile screen of PTX-BD4-3 binding to a panel of pharmacologically relevant receptors was conducted by Cerep, Inc.
(§8) (Eurofins Panlabs, MO). The results are expressed as percent inhibition of control specific binding obtained in the presence of 10 micromolar PTX-BD4-3. In this assay, values below 50% indicate no specific binding of PTX-BD4-3. The assay was negative for PTX-BD4-3 binding to all of the 55 receptors in the screen.
(§9) (also on this page, place not known: 2B 5‐HT 3 5‐HT 5a 5‐HT 6 5‐HT 7 (agonis t VPAC 1 V 1 Ca 2+ K V SK Ca Na + Cl ‐ 5‐HT Disease Models & Mechanisms: doi:10.1242/dmm.044685: Supplementary information Disease Models & Mechanisms • Supplementary information)

The next assay has as its target T2, A1 (h) (Homo sapiens, UniProt P30542).
T2 construct: purchased Cerep (ExpresSProfile)
T2 sequence (P30542 1-326): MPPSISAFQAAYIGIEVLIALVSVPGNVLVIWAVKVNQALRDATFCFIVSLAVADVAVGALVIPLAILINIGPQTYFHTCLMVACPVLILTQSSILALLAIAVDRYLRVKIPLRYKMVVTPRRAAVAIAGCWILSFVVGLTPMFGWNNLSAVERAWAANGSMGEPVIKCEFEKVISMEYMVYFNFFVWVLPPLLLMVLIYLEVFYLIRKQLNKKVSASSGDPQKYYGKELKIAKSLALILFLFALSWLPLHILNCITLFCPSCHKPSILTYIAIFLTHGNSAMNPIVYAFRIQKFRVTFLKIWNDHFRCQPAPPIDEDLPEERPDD
In words: Cerep ExpresSProfile radioligand binding. The settings on record: 10 micromolar, agonist radioligand. The protocol: as §1, §2, §3, §4, §5, §6, §7, §8, §9

A further assay deals with T3, B2 (h) (Homo sapiens, UniProt P30411).
T3 construct: purchased Cerep (ExpresSProfile)
T3 sequence (P30411 1-391): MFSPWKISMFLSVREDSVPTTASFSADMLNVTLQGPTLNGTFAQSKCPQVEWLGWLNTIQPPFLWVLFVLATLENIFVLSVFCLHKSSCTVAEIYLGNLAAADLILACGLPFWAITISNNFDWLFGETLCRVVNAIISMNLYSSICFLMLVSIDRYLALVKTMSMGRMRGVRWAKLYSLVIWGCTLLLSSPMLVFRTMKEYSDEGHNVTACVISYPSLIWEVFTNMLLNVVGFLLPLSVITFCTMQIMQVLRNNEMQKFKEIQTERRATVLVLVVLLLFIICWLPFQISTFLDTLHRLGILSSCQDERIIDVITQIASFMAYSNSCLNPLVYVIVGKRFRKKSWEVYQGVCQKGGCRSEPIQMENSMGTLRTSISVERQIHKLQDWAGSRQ
Briefly: Cerep ExpresSProfile radioligand binding. The settings on record: 10 micromolar, agonist radioligand. The procedure: as §1, §2, §3, §4, §5, §6, §7, §8, §9

In another assay the test system is BZD (central). In words: Cerep ExpresSProfile radioligand binding. The conditions noted are these: 10 micromolar; agonist radioligand. The procedure: as §1, §2, §3, §4, §5, §6, §7, §8, §9
A further assay has as its target T4, D1 (h) (Homo sapiens, UniProt P21728).
T4 construct: purchased Cerep (ExpresSProfile)
Briefly: Cerep ExpresSProfile radioligand binding. The settings on record: 10 micromolar, antagonist radioligand. The protocol:
as §1, §2, §3, §4, §5, §6, §7, §8, §9

A further assay concerns the target T5, D2S (h) (Homo sapiens, UniProt P14416).
T5 construct: purchased Cerep (ExpresSProfile)
Briefly: Cerep ExpresSProfile radioligand binding. The conditions noted are these: 10 micromolar; antagonist radioligand; read-out: % Inhibition of Control Specific Binding 2nd. The protocol:
as §1, §2, §3, §4, §5, §6, §7, §8, §9

The target in another assay is T6, EP4 (h) (Homo sapiens, UniProt P35408).
T6 construct: purchased Cerep (ExpresSProfile)
T6 sequence (P35408 whole entry): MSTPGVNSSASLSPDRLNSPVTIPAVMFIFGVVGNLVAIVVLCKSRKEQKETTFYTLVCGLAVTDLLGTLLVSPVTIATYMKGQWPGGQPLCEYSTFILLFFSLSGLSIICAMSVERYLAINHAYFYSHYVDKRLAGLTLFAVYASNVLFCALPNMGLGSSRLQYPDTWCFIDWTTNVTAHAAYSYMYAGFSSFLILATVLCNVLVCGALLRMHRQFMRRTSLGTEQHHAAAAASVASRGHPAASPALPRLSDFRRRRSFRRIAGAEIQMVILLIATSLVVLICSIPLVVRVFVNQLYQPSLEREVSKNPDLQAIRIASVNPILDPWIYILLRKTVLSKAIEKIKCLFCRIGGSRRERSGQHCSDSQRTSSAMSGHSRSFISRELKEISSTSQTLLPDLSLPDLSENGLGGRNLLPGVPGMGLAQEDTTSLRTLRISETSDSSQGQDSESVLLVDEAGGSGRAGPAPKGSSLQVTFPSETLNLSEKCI
Briefly: Cerep ExpresSProfile radioligand binding. The settings on record: 10 micromolar, agonist radioligand. The protocol:
as §1, §2, §3, §4, §5, §6, §7, §8, §9

In a further assay the target is T7, GAL2 (h) (Homo sapiens, UniProt O43603).
T7 construct: purchased Cerep (ExpresSProfile)
T7 sequence (O43603 whole entry): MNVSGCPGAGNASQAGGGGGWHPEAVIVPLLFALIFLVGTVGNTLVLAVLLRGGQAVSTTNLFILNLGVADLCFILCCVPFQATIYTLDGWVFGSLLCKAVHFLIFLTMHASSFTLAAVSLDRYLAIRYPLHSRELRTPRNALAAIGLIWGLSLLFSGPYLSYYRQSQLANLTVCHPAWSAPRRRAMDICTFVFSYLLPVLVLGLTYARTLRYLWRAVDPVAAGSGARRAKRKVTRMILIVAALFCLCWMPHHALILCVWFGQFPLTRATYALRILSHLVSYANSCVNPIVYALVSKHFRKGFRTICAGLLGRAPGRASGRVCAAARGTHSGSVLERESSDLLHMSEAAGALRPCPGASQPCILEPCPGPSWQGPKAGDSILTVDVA
Briefly: Cerep ExpresSProfile radioligand binding. The conditions noted are these: 10 micromolar; agonist radioligand; read-out: % Inhibition of Control Specific Binding 2nd. The procedure:
as §1, §2, §3, §4, §5, §6, §7, §8, §9

The next assay addresses T8, μ (MOP) (h) (Homo sapiens, UniProt P35372).
T8 construct: purchased Cerep (ExpresSProfile)
In words: Cerep ExpresSProfile radioligand binding. The conditions noted are these: 10 micromolar; agonist radioligand; read-out: % Inhibition of Control Specific Binding 1st. The procedure: as §1, §2, §3, §4, §5, §6, §7, §8, §9

For assay [3], the system named is 3T3 parent line, which does not express Trk receptors. Briefly: NIH-3T3 cell survival. Format: cell-based, mouse. The conditions noted are these: serum-free medium.
Assay [4] has as its system heterozygous (Het) female Mecp2 mutant mice. In words: Phenotype severity score. It is filed as in vivo, mouse. The conditions noted are these: for group average phenotype severity score: 5 mg/kg q72 hrs. The procedure: Group Pre‐Treatment Week 2 Week 4 Week 6 Week 8
Table S3. Group average bi-weekly phenotype severity scores after repeated dosing with PTX-BD4-3 (5 mg/kg, q72 hrs). Animals were assigned aggregate scores of phenotypic severity based on visual assessments of mobility, hind limb clasping, gait analysis, tremors, respiration and overall physical condition (scoring range = 0-12; Guy et al., 2007). The phenotype severity scores of Het animals […]
(also on this page, place not known: tr eatment Disease Models & Mechanisms: doi:10.1242/dmm.044685: Supplementary information Disease Models & Mechanisms • Supplementary information) […]

Where [5] appears, read: read-out: % Inhibition of Control Specific Binding 1st.
[6] abbreviates: read-out: % Inhibition of Control Specific Binding Mean.
Setting [7] is: read-out: % Inhibition of Control Specific Binding 2nd.

T4 sequence (P21728 whole entry): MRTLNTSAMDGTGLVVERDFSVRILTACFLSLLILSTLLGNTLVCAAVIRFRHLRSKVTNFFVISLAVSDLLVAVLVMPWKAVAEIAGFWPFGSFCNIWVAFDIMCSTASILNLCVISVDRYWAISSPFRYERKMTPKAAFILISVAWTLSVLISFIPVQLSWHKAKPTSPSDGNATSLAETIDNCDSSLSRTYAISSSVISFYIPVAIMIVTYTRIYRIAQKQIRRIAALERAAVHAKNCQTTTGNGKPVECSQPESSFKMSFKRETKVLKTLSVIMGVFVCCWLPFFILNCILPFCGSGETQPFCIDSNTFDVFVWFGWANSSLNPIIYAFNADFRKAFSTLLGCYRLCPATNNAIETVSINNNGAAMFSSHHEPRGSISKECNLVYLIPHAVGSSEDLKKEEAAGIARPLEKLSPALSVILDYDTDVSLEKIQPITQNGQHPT
T5 sequence (P14416 1-414 isoform P14416-2): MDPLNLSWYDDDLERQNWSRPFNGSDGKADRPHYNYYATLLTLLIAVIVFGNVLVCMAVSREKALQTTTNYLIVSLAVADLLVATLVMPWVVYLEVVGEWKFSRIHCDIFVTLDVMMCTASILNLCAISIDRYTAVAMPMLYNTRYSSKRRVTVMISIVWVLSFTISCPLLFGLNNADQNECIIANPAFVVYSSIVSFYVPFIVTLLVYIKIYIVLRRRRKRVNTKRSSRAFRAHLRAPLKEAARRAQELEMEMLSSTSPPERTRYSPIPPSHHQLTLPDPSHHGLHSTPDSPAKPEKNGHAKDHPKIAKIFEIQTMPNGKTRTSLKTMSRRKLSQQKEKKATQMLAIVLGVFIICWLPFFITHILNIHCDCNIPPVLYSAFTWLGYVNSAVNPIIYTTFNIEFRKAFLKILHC
T8 sequence (P35372 whole entry): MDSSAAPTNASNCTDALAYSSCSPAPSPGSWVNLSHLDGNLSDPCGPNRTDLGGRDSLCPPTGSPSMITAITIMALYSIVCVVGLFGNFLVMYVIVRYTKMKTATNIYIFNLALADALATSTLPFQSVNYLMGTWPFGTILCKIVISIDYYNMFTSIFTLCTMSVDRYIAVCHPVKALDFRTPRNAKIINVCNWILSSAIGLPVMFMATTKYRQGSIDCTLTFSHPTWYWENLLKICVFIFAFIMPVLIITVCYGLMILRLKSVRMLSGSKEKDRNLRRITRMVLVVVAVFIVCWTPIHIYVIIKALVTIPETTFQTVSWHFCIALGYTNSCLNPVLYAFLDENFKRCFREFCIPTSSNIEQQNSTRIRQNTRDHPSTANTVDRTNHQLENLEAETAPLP

Take `O=C(NCCO)c1cc(C(=O)NCCO)cc(C(=O)NCCO)c1` [LM22A-4, N,N′,N′′-tris(2-hydroxyethyl)-1,3,5-benzenetricarboxamide, reference compound]: the “binding within the panel of 55 receptors” value in assay [1] is “no significant binding”. Further, the motor learning entry in assay [2] is on record as “improve motor learning”. For the same compound, the “behavioral learning in a spatial memory task” value in the assay with Het mice was “improves behavioral learning”.

Turning to `COCCN(C)C(=O)c1cc(C(=O)N(C)CCOC)cc(C(=O)N(C)CCOC)c1` [PTX-BD4-3, benzene-1,3,5-tricarboxylic acid tris-[(2-methoxy-ethyl)-methyl-amide]], the inhibition at 10 µM at 5-HT1A (h) (setting [5]) stood at 19.3%; on 5-HT1A (h) (setting [6]) it was 5%; at A1 (h) (setting [5]), 8.9%; at A1 (h) (setting [7]) it was 5.6%; on A1 (h) (setting [6]), 7.2%; on B2 (h) (setting [5]), 8.1%. Further, the inhibition at 10 µM worked out at 0.3% on B2 (h) (setting [7]); 4.2% at B2 (h) (setting [6]); 10.7% on D1 (h) (setting [5]); 1.3% on D1 (h) (setting [7]); 6% at D1 (h) (setting [6]); 2.4% at D2S (h). The inhibition at 10 µM at EP4 (h) (setting [5]) was 9.5%; on EP4 (h) (setting [7]), 10.4%; on EP4 (h) (setting [6]), 9.9%; on GAL2 (h) it was 6.3%; on μ (MOP) (h), 6.6%. Besides, in the assay on BZD (central), the “% Inhibition of Control Specific Binding 1st” value stood at 2.9%. Besides, the “survival of the 3T3 parent line” value in [3] was “did not support survival”. For the same compound, the “change of global phenotypic severity scores over the time course” value in [4] (5 mg/kg q72 h, pre-treatment vs 8 weeks) was “did not increase significantly”. The “group average phenotype severity score” value in [4] (Week 2, scoring range 0-12, pre-treatment 2.73) was determined as 3.46; in [4] (Week 4, scoring range 0-12), 3.66; in assay [4] (Week 6, scoring range 0-12), 4.33; in assay [4] (Week 8, scoring range 0-12), 3.66.
